pIC50: −log10 of the molar value.
Experiments:
[1] = molecular target: T1, epithelial sodium channel (Canis lupus familiaris, UniProt A0A8I3MKE6+A0A8I3Q679+Q95165); test: Inhibition of short-circuit current (ISC) in airway epithelial monolayers in Ussing chambers; format: cell-based, canine; conditions: canine bronchial epithelial cells, short-circuit current; read-out: Potency of Sodium Channel Blockade IC50
T1 construct: endogenous in cells; host or cells: primary canine bronchial epithelial cells cultured at air-liquid interface
T1 sequence (A0A8I3Q679 1-649): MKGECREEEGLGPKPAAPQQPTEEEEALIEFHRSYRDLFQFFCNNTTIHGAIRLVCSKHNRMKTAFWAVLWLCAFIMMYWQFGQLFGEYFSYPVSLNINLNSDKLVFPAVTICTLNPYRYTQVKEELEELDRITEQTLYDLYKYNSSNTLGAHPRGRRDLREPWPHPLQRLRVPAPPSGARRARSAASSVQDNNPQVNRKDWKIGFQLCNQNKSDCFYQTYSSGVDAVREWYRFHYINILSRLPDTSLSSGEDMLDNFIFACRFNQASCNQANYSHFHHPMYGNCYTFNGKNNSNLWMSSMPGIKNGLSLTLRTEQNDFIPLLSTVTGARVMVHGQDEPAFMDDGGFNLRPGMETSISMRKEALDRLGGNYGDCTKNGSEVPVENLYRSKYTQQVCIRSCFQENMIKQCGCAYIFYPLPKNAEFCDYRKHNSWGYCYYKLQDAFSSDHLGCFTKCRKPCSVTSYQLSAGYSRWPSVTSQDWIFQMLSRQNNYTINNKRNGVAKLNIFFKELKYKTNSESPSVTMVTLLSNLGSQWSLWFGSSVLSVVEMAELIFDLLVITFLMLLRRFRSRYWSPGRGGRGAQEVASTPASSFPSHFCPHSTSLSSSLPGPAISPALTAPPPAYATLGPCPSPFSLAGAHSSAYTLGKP
T1 sequence (Q95165 1-641): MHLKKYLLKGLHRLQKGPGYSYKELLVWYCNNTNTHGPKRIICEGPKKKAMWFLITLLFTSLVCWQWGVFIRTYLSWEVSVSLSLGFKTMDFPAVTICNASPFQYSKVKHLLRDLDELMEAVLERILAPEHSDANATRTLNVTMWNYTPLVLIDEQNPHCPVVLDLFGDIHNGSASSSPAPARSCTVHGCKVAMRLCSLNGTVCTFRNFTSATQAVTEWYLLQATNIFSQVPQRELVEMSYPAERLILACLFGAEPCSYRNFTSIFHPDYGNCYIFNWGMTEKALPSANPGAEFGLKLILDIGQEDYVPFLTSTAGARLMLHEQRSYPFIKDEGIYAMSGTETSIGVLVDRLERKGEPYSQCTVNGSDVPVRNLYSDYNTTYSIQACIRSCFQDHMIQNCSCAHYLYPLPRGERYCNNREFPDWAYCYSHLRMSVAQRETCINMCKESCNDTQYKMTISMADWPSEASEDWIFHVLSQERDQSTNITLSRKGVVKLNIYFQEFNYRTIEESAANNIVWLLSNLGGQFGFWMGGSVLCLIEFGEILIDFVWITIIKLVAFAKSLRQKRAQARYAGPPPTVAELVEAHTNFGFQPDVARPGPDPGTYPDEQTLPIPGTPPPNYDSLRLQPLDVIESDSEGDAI
T1 sequence (A0A8I3MKE6 1-646): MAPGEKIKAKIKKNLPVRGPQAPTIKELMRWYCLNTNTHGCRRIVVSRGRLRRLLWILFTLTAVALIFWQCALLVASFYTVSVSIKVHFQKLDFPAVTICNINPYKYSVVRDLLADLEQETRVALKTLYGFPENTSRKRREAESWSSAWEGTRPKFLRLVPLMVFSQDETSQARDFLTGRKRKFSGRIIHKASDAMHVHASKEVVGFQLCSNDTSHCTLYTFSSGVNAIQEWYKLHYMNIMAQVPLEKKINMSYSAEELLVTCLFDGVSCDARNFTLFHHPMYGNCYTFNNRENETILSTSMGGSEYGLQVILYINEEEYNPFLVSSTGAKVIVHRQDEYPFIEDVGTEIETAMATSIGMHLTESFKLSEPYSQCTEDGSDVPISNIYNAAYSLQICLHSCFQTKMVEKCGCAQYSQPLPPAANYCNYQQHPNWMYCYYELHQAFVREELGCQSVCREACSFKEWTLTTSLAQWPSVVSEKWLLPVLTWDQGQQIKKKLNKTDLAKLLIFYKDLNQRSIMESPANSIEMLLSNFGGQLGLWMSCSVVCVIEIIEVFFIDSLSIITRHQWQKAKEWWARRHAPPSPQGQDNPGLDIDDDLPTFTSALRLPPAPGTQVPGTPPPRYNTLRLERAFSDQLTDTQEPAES
Procedure: One assay used to assess mechanism of action and/or potency of the compounds of the present invention involves the determination of lumenal drug inhibition of airway epithelial sodium currents measured under short circuit current (ISC) using airway epithelial monolayers mounted in Using chambers. Cells obtained from freshly excised human, dog, sheep or rodent airways are seeded onto porous 0.4 micron Snapwelff Inserts (CoStar), cultured at air-liquid interface (ALI) conditions in hormonally defined media, and assayed for sodium transport activity (ISC) while bathed in Krebs Bicarbonate Ringer (KBR) in Using chambers. All test drug additions are to the lumenal bath with half-log dose addition protocols (from 1×10^−11 M to 3×10^−5 M), and the cumulative change in ISC (inhibition) recorded. All drugs are prepared in dimethyl sulfoxide as stock solutions at a concentration of 1×10^−2 M and stored at −20° C. […] After the maximal concentration ([…]) is administered, the lumenal bath is exchanged three times with fresh drug-free KBR solution, and the resultant ISC measured after each wash for approximately 5 minutes in duration. Reversibility is defined as the percent return to the baseline value for sodium current after the third wash. All data from the voltage clamps are collected via a computer interface and analyzed off-line.
Dose-effect relationships for all compounds are considered and analyzed by the Prism 3.0 program.

[2] = tested on: human bronchial epithelial (HBE) cells; test: Airway surface liquid drug clearance and metabolism by human airway epithelium; format: in vitro ADME
Procedure: The disappearance of 33 from the apical surface and airway epithelial metabolism were assessed in human bronchial epithelial (HBE) cells (Table 3). In these experiments 25 μL of a 25 μM solution of ENaC blocker was added to the apical surface of HBE cells grown at an air/liquid interface, and the drug and metabolite concentration in the apical and basolateral compartment was measured over 2 h by UPLC.
Therefore, the compounds of formula (I) have a longer half-life on mucosal surfaces compared to these know compounds as evidenced by the data shown in Table G. The disappearance of Compound 33 from the apical surface and airway epithelial metabolism were assessed in HBE and compared to Comparative Example 1 (Table H). In these experiments 25 μL of a 25 μM solution of ENaC blocker was added to the apical surface of HBE cells grown at an air/liquid interface, and the drug concentration in the apical and basolateral compartment was measured over 2 h by UPLC.

[3] = HBE cells at air/liquid interface, 25 μL of 25 μM apical, mean ± SD

For `N=C(NCCCCc1ccc(C[C@H](N)C(=O)Nc2ccc(CCCN(C[C@H](O)[C@@H](O)[C@H](O)[C@H](O)CO)C[C@H](O)[C@@H](O)[C@H](O)[C@H](O)CO)cc2)c2ccccc12)NC(=O)c1nc(Cl)c(N)nc1N` [Compound 33, 3,5-diamino-N—(N-(4-(4-((S)-2-amino-3-(4-(3-(bis((2S,3R,4R,5R)-2,3,4,5,6-pentahydroxyhexyl)amino)propyl)phenylamino)-3-oxopropyl)naphthalen-1-yl)butyl)carbamimidoyl)-6-chloropyrazine-2-carboxamide], the pIC50 [1] was 7.66, the “% of Apical Mass as Metabolites (2 h)” value [2, 3] was 4% and the “% on Basolateral Side as Metabolites (2 h)” value [2, 3] was 32%. The “fate on the apical side after 2 h incubation” value ([2]; HBE cells, apical surface, 37° C.) was “mostly unmetabolized on the apical side”.
